Source: patent US9833497B2, “Human originated EGF domain proteins and use of the same” (CHENGDU SOURCEBIO LIMITED-LIABILITY COMPANY, priority 2013, dated 2017)

Legend:
Format in all cases: cell-based
Aeromonas hydrophila = experiment: MIC against Gram-negative bacteria: Aeromonas hydrophila
Summary of the method: (§1)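 The recombinant human-originated EGF domain proteins were serially diluted two-fold against bacteria at 5×10^5 CFU/mL in LB medium. After shaken incubation at 37° C, the lowest concentration with no bacterial growth was recorded as the MIC.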

Klebsiella pneumonia = experiment: MIC against Gram-negative bacteria: Klebsiella pneumonia
Summary of the method: as §1

Moraxella catarrhalis = experiment: MIC against Gram-negative bacteria: Moraxella catarrhalis
Summary of the method: as §1

Proteus mirabilis = experiment: MIC against Gram-negative bacteria: Proteus mirabilis
Summary of the method: as §1

Enterobacter cloacae = experiment: MIC against Gram-negative bacteria: Enterobacter cloacae
Summary of the method: as §1

E. coli DH5α = experiment: Antibacterial activity: MIC and growth curve against E. coli DH5α in 96-well plate; settings: minimal inhibitory concentration against E. coli DH5α; 96-well plate, 5×10^5 CFU/mL, 37° C., judged after 8 h
Summary of the method: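 Log-phase DH5α (OD600 about 0.5, 37° C, 185 rpm in LB) was pelleted, resuspended in fresh LB and seeded at 5×10^5 CFU/mL with recombinant protein at 50, 25 and 12.5 μg/mL (two-fold series), in triplicate. Plates were shaken at 175 rpm, 37° C, and OD600 was read every 30 min. MIC was the lowest concentration with no growth.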

Pseudomonas aeruginosa = experiment: MIC against Gram-negative bacteria: Pseudomonas aeruginosa
Summary of the method: as §1

Proteus vulgaris = experiment: MIC against Gram-negative bacteria: Proteus vulgaris
Summary of the method: as §1

Citrobacter diversus = experiment: MIC against Gram-negative bacteria: Citrobacter diversus
Summary of the method: as §1

Serratia marcescens = experiment: MIC against Gram-negative bacteria: Serratia marcescens
Summary of the method: as §1

E. coli BL21 = experiment: MIC against Gram-negative bacteria: E. coli BL21
Summary of the method: as §1

[1] = 96-well plate, 5×10^5 CFU/mL, 37° C., 10 h
[2] = A. hydrophila, 10 h cultivation at 37° C.
[3] = K. pneumonia, 10 h cultivation at 37° C.
[4] = M. catarrhalis, 10 h cultivation at 37° C.
[5] = P. mirabilis, 10 h cultivation at 37° C.
[6] = E. cloacae, 10 h cultivation at 37° C.
[7] = P. aeruginosa, 10 h cultivation at 37° C.
[8] = P. vulgaris, 10 h cultivation at 37° C.
[9] = C. diversus, 10 h cultivation at 37° C.
[10] = S. marcescens, 10 h cultivation at 37° C.
[11] = E. coli BL21, 10 h cultivation at 37° C.

Substance | MIC against A. hydrophila (Aeromonas hydrophila; [1]) [µg/mL] | MIC against K. pneumonia (Klebsiella pneumonia; [1]) [µg/mL] | MIC against M. catarrhalis (Moraxella catarrhalis; [1]) [µg/mL] | MIC against P. mirabilis (Proteus mirabilis; [1]) [µg/mL] | MIC against E. cloacae (Enterobacter cloacae; [1]) [µg/mL] | MIC (E. coli DH5α) [µg/mL] | MIC against P. aeruginosa (Pseudomonas aeruginosa; [1]) [µg/mL] | MIC against P. vulgaris (Proteus vulgaris; [1]) [µg/mL] | MIC against C. diversus (Citrobacter diversus; [1]) [µg/mL] | MIC against S. marcescens (Serratia marcescens; [1]) [µg/mL] | MIC against E. coli BL21 (E. coli BL21; [1]) [µg/mL] | MIC (Aeromonas hydrophila; [2]) [µg/mL] | MIC (Klebsiella pneumonia; [3]) [µg/mL] | MIC (Moraxella catarrhalis; [4]) [µg/mL] | MIC (Proteus mirabilis; [5]) [µg/mL] | MIC (Enterobacter cloacae; [6]) [µg/mL] | MIC (Pseudomonas aeruginosa; [7]) [µg/mL] | MIC (Proteus vulgaris; [8]) [µg/mL] | MIC (Citrobacter diversus; [9]) [µg/mL] | MIC (Serratia marcescens; [10]) [µg/mL] | further results
PRT507 (CICYGHARACPLDPATNKSRCECEHNTCGDSCDQCCPGFHQKPWRAGTFLTKTECEA; listed as Homo sapiens) | 50 | 50 | 50 | 12.5 | 12.5 | 12.5 | 12.5 | 50 | 12.5 | 25 | 50 |  |  |  |  |  |  |  |  |  | 
PRT492 (CICYGHASSCPWDETTKKLQCQCEHNTCGESCNRCCPGYHQQPWRPGTVSSGNTCEA; listed as Homo sapiens) | 50 | 12.5 | 12.5 | 50 | 25 | 25 | 25 | 12.5 | 25 | 50 | 50 |  |  |  |  |  |  |  |  |  | 
PRT178 (SGVTCADGPCFNGGLCVGGADPDSAYICHCPPGFQGSNCE; listed as Homo sapiens) |  |  |  |  |  | 25 |  |  |  |  |  |  |  |  |  |  |  |  |  |  | MIC (μg/mL) A. hydrophila (Aeromonas hydrophila; A. hydrophila, 10 h cultivation at 37° C., 5×10^5 CFU/mL): 12.5 µg/mL; MIC (μg/mL) K. pneumonia (Klebsiella pneumonia; K. pneumonia, 10 h cultivation at 37° C., 5×10^5 CFU/mL): 12.5 µg/mL; MIC (μg/mL) M. catarrhalis (Moraxella catarrhalis; M. catarrhalis, 10 h cultivation at 37° C., 5×10^5 CFU/mL): 12.5 µg/mL; MIC (μg/mL) P. mirabilis (Proteus mirabilis; P. mirabilis, 10 h cultivation at 37° C., 5×10^5 CFU/mL): 50 µg/mL; MIC (μg/mL) E. cloacae (Enterobacter cloacae; E. cloacae, 10 h cultivation at 37° C., 5×10^5 CFU/mL): 50 µg/mL; MIC (μg/mL) P. aeruginosa (Pseudomonas aeruginosa; P. aeruginosa, 10 h cultivation at 37° C., 5×10^5 CFU/mL): 25 µg/mL; MIC (μg/mL) P. vulgaris (Proteus vulgaris; P. vulgaris, 10 h cultivation at 37° C., 5×10^5 CFU/mL): 12.5 µg/mL; MIC (μg/mL) C. diversus (Citrobacter diversus; C. diversus, 10 h cultivation at 37° C., 5×10^5 CFU/mL): 50 µg/mL; MIC (μg/mL) S. marcescens (Serratia marcescens; S. marcescens, 10 h cultivation at 37° C., 5×10^5 CFU/mL): 25 µg/mL; MIC (μg/mL) E. coli BL21 (E. coli BL21; E. coli BL21, 10 h cultivation at 37° C., 5×10^5 CFU/mL): 50 µg/mL
PRT923 (LDDACISNPCHKGALCDTNPLNGQYICTCPQGYKGADCT; listed as Homo sapiens) |  |  |  |  |  | 25 |  |  |  |  |  | 50 | 25 | 12.5 | 25 | 12.5 | 25 | 50 | 25 | 25 | MIC (E. coli BL21; [11]): 50 µg/mL
PRT734 (NNNPCLENNGGCSHLCFALPGLHTPKCDCAFGTLQSDGKNCA; listed as Homo sapiens) |  |  |  |  |  | 50 |  |  |  |  |  |  |  |  |  |  |  |  |  |  | MIC A. hydrophila (Aeromonas hydrophila; [1]): 50 µg/mL; MIC K. pneumonia (Klebsiella pneumonia; [1]): 50 µg/mL; MIC M. catarrhalis (Moraxella catarrhalis; [1]): 12.5 µg/mL; MIC P. mirabilis (Proteus mirabilis; [1]): 25 µg/mL; MIC E. cloacae (Enterobacter cloacae; [1]): 12.5 µg/mL; MIC P. aeruginosa (Pseudomonas aeruginosa; [1]): 25 µg/mL; MIC P. vulgaris (Proteus vulgaris; [1]): 25 µg/mL; MIC C. diversus (Citrobacter diversus; [1]): 25 µg/mL; MIC S. marcescens (Serratia marcescens; [1]): 50 µg/mL; MIC E. coli BL21 (E. coli BL21; [1]): 12.5 µg/mL
PRT1023 (PINYCETGLHNCDIPQRAQCIYTGGSSYTCSCLPGFSGDGQACQ; listed as Homo sapiens) |  |  |  |  |  | 25 |  |  |  |  |  | 12.5 | 12.5 | 12.5 | 12.5 | 25 | 25 | 50 | 25 | 12.5 | MIC (E. coli BL21; [11]): 12.5 µg/mL
